Measurements published in ChEMBL document CHEMBL1125889, “8-(Dicyclopropylmethyl)-1,3-dipropylxanthine: a potent and selective adenosine A1 antagonist with renal protective and diuretic activities” (J Med Chem, 1991).

How the values were obtained:
Adenosine A2 receptor [1] = molecular target: T1, Adenosine A2 receptor (Rattus norvegicus, UniProt P29276+P30543); format: cell membranes, Membrane
Adenosine receptor A1 [2] = molecular target: T2, Adenosine receptor A1 (Cavia porcellus, UniProt P47745); assay: Binding affinity carried out with [3H]cyclohexyladenosine in guinea pig forebrain membranes against adenosine A1 receptor; format: cell membranes, Brain membranes
T2 sequence (P47745 whole entry): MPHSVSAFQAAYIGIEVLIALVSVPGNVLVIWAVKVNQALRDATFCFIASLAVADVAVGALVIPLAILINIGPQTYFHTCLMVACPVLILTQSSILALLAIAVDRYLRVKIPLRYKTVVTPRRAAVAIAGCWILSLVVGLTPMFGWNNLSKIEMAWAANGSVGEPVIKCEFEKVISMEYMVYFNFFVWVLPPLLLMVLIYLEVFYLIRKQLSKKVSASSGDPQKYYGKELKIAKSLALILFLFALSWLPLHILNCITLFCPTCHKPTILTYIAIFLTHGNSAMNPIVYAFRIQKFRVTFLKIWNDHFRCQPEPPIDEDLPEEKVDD

Cavia porcellus = species: Cavia porcellus; assay: Ki ratio evaluated as the Ki of A2 to that A1 receptor values.
Rattus norvegicus [3] = assay: Compound was evaluated for Serum creatinine concentration in glycerol injected rats treated with 1 mg/kg administered intraperitoneally; format: functional, organism-based; parameters: dose 1 mg/kg
Adenosine receptor A1 [4] = molecular target: T2, Adenosine receptor A1
Description: Inhibition of [3H]cyclohexyladenosine binding to guinea pig forebrain membranes Adenosine A1 receptor

Rattus norvegicus [5] = species: Rattus norvegicus; details: in vivo, po, 6 h
Description: Compound administered at a dose of 6.25 mg/25 mL/kg orally to rats, urine collected for 6 hr and measured for K+ excretion.

Rattus norvegicus [6] = species: Rattus norvegicus; details: in vivo, po, 6 h; remark: listed apart in the source
Description: Compound administered at a dose of 6.25 mg/25 mL/kg orally to rats, urine collected for 6 hr and measured for Na+ excretion.

Rattus norvegicus [7] = species: Rattus norvegicus; details: in vivo, po, 6 h; remark: listed apart in the source
Description: Compound administered at a dose of 6.25 mg/25 mL/kg orally to rats, urine collected for 6 hr and measured for urine volume.

Adenosine A2 receptor [8] = molecular target: T1, Adenosine A2 receptor; format: cell membranes, Membrane; remark: listed apart in the source
Rattus norvegicus [9] = assay: Compound was evaluated for Serum creatinine concentration in glycerol injected rats treated with 10 mg/kg administered intraperitoneally.; format: functional, organism-based; parameters: dose 10 mg/kg

Structure (SMILES) | Ki (Adenosine A2 receptor [1]) [nM] | Ki (Adenosine receptor A1 [2]) [nM] | Ki ratio (Cavia porcellus) | further results
CCCn1c(=O)c2nc(C(c3ccccc3)C3CC3)[nH]c2n(CCC)c1=O (centres undefined) | 1800 | 150 | 12 | –
CC(C)Cn1c(=O)n(C)c(=O)c2[nH]c(C(C3CC3)C3CC3)nc21 | – | 12 | 34 | –
CCn1c(=O)c2[nH]c(C(C3CC3)C3CC3)nc2n(CC)c1=O | – | 13 | – | –
CCCn1c(=O)c2c(nc(C(C3CC3)C3CC3)n2CC)n(CCC)c1=O | – | 1600 | 8.8 | –
CCCn1c(=O)c2nc(C(C3CC3C)C3CC3C)[nH]c2n(CCC)c1=O (centres undefined) | 1000 | – | 100 | –
CCCn1c(=O)c2[nH]c(C(c3ccccc3)C3CCCC3)nc2n(CCC)c1=O (centres undefined) | – | 400 | – | –
CCCn1c(=O)c2nc(C(CC)c3ccccc3)[nH]c2n(CCC)c1=O (centres undefined) | 1100 | 100 | 11 | –
CCCn1c(=O)c2nc(C(C3CCCCC3)C3CCCCC3)[nH]c2n(CCC)c1=O | > 100000 | > 100000 | – | –
CCCn1c(=O)c2nc(C(C)Cc3ccc(OC)cc3)[nH]c2n(CCC)c1=O (centres undefined) | 580 | – | 2.6 | –
Cn1c(=O)c2nc(C(C3CC3)C3CC3)[nH]c2n(C)c1=O | – | 81 | 33 | –
CCCn1c(=O)c2c(nc(C(C3CC3)C3CC3)n2C)n(CCC)c1=O | – | 7400 | 3.9 | –
CCCn1c(=O)c2nc(C(C)CC)[nH]c2n(CCC)c1=O (centres undefined) | 1200 | – | 48 | –
CCCn1c(=O)c2[nH]c(C(C)Cc3ccccc3)nc2n(CCC)c1=O (centres undefined) | – | 260 | – | –
CCCCn1c(=O)c2nc(C(C3CC3)C3CC3)[nH]c2n(CCCC)c1=O | – | 5.5 | 80 | –
CCCC(CCC)c1nc2c(=O)n(CCC)c(=O)n(CCC)c2[nH]1 | 590 | – | 7.6 | –
CCCn1c(=O)c2nc(C(CC)Oc3ccccc3)[nH]c2n(CCC)c1=O (centres undefined) | 3300 | 900 | 3.7 | –
CCCC(CCC)c1nc2c([nH]1)c(=O)n(CCC)c(=O)n2CCC | – | 78 | – | –
CCCn1c(=O)c2[nH]c(C(C3CC3C)C3CC3C)nc2n(CCC)c1=O (centres undefined) | – | 9.7 | – | –
CCCn1c(=O)[nH]c(=O)c2[nH]c(C(C3CC3)C3CC3)nc21 | > 100000 | 1300 | > 77 | –
CCCn1c(=O)c2nc(C(C)Cc3ccccc3)[nH]c2n(CCC)c1=O (centres undefined) | 480 | – | 1.8 | –

Structure (SMILES) | Ki (Adenosine A2 receptor [1]) [nM] | Ki (Adenosine receptor A1 [2]) [nM] | Ki ratio (Cavia porcellus) | further results
CCCn1c(=O)c2nc(C(C3CC3)C3CC3)[nH]c2n(CCC)c1=O | – | – | 140 | Serum creatinine conc (Rattus norvegicus [3]): 2.99 mg/dL
CCCn1c(=O)c2c(nc(C(C3CC3)C3CC3)n2CCC)n(CCC)c1=O | – | 13000 | 0.48 | –
Cn1c(=O)c2c(ncn2C)n(C)c1=O [CAFFEINE] | – | – | – | Ki (Adenosine receptor A1 [4]): > 100000 nM; K+ excretion (Rattus norvegicus [5]): 0.99 ml 6hr-1 100g-1; K+ excretion (Rattus norvegicus [6]): 1.1 ml 6hr-1 100g-1; Urine volume (Rattus norvegicus [7]): 0.92 ml 6hr-1 100g-1
CCCn1c(=O)c2nc(C(c3ccccc3)C3CCCC3)[nH]c2n(CCC)c1=O (centres undefined) | 4000 | – | 10 | –
CCCn1c(=O)c2nc(C(c3ccccc3)c3ccccc3)[nH]c2n(CCC)c1=O | – | – | > 48 | Ki (Adenosine A2 receptor [8]): > 100000 nM
CCCn1c(=O)c2[nH]c(C(c3ccc(F)cc3)C3CC3)nc2n(CCC)c1=O (centres undefined) | – | 250 | – | –
CCn1c(=O)c2nc(C(C3CC3)C3CC3)[nH]c2n(CC)c1=O | – | – | 53 | –
CCCn1c(=O)c2nc(C(c3ccc(OC)cc3)C3CC3)[nH]c2n(CCC)c1=O (centres undefined) | – | 250 | 8.8 | Ki (Adenosine A2 receptor [8]): 2200 nM
CCCn1c(=O)c2nc(C(C)C)[nH]c2n(CCC)c1=O | 1500 | 49 | 31 | –
CCCn1c(=O)c2nc[nH]c2n(CCC)c1=O | – | – | – | Ki (Adenosine receptor A1 [4]): 1200 nM
CCCn1c(=O)c2[nH]c(C(c3ccccc3)c3ccccc3)nc2n(CCC)c1=O | – | 2100 | – | –
NS(=O)(=O)c1cc(C(=O)O)c(NCc2ccco2)cc1Cl | – | – | – | Serum creatinine conc (Rattus norvegicus [9]): 4.17 mg/dL
Cn1c(=O)c2[nH]cnc2n(C)c1=O.O [THEOPHYLLINE] | – | – | – | Serum creatinine conc (Rattus norvegicus [9]): 5.32 mg/dL; K+ excretion (Rattus norvegicus [5]): 1.16 ml 6hr-1 100g-1; Na+ excretion (Rattus norvegicus [6]): 1.52 ml 6hr-1 100g-1; Urine volume (Rattus norvegicus [7]): 1.42 ml 6hr-1 100g-1
CCCn1c(=O)c2nc(C(C)N)[nH]c2n(CCC)c1=O (centres undefined) | > 100000 | 3000 | > 33 | –
CCCn1c(=O)c2[nH]c(C(C)CC)nc2n(CCC)c1=O (centres undefined) | – | 25 | – | –
CCCn1c(=O)c2[nH]c(C(C)Cc3ccc(OC)cc3)nc2n(CCC)c1=O (centres undefined) | – | 220 | – | –
CCCn1c(=O)c2[nH]c(C3CCCC3)nc2n(CCC)c1=O [1,3-DIPROPYL-8-CYCLOPENTYLXANTHINE [DPCPX]] | – | – | – | Serum creatinine conc (Rattus norvegicus [3]): 3.75 mg/dL; K+ excretion (Rattus norvegicus [5]): 1.26 ml 6hr-1 100g-1; Na+ excretion (Rattus norvegicus [6]): 1.98 ml 6hr-1 100g-1; Urine volume (Rattus norvegicus [7]): 1.87 ml 6hr-1 100g-1
CCCn1c(=O)c2nc(C(c3ccc(F)cc3)C3CC3)[nH]c2n(CCC)c1=O (centres undefined) | 1400 | – | 5.6 | –
CCCn1c(=O)c2nc(C(CC)CC)[nH]c2n(CCC)c1=O | 570 | – | 30 | –
